{"source": "patent US20240335395A1", "about": "“COMPOSITIONS AND METHODS FOR PREVENTING AND/OR TREATING DISEASE ASSOCIATED WITH IL-23 EXPRESSION” (ALLSPIM, priority 2021, published 2024)", "key": {"[1]": {"tested_on": "IBA1 positive macrophage/microglia", "assay": "Laser-induced CNV in rats, IBA-1 positive macrophages on RPE-choroid flat-mounts", "assay_type": "in vivo, rat", "settings": "intravitreous injection", "experimental": "Animals. All experiments were performed in accordance with the European Communities Council Directive 86/609/EEC and approved by local ethical committees (#2541-2015110210279792 v3). Six- to eight-week-old male Long Evans rats from the Janvier Breeding Center (Le Genest-Saint-Isle, France) were used to create a rat model of choroidal neovascularization (CNV) used as a model of human wet macular degeneration. Laser-induced CNV. After anesthesia and dilation of the pupils, coverslips were positioned on the cornea as a contact glass. For rats, six or eight burns were performed 2 to 3 optic disc diameters away from the optic nerve with an Argon laser (532 nm) mounted on a slit lamp (175 mW, 0.1 s and 50 μm). Both eyes of animals received laser induction. The presence of a bubble witnessed the rupture of Bruch's membrane and confirmed a successful laser impact. Treatments. After laser photocoagulation, rats were divided into 3 treatment groups: —Intravitreous injection (IVT) of 2,4-D (identified as “new treatment”, New T), —IVT of vehicle (PBS), —IVT of triamcinolone acetonide (Kenacort® 40 mg/ml; TA) (n=12 rats per group). The IVT consisted of 5 μl injected with a 31G needle mounted on a micro-thin (100 μl) syringe posterior to the limbus, avoiding the lens. IVT was performed immediately after laser had been performed. […]"}, "[2]": {"tested_on": "MSU-induced knee joint edema", "assay": "MSU-induced knee joint edema in mice", "assay_type": "in vivo, mouse", "settings": "20 h", "experimental": "2,4-D, isolated and purified from Chloranthus spicatus (purity≥98%), was purchased from BOC Science (Shirley, NY). Colchicine (CLC) (purity≥96%) and dexamethasone (DEX) (purity≥98%) were purchased from Sigma. Mice (six per group) were treated with 2,4-D (100 mg/kg or 20 mg/kg, i.p.), CLC (1 mg/kg or 0.2 mg/kg, i.p.), DEX (0.5 mg/kg or 0.1 mg/kg, i.p.), or vehicle (20% polyoxyethylenesorbitan monooleate (Tween 80) plus PBS) 30 min before intra-articular stimulus with MSU (100 μg/10 μL, i.a.). Six mice with intra-articular injection with PBS alone served as a negative control.\nPreparation of monosodium urate crystal (MSU). MSU crystals were prepared as described previously (Ruiz-Miyazawa et al., 2017). Briefly, 800 mg of monosodium urate was dissolved in 155 ml of boiling milli-Q water containing 2N NaOH. After pH adjustment to 8.9, the solution was cooled gradually by stirring at room temperature and crystallized overnight at 4° C. Crystals were collected, and centrifuged at 3,000×g for 2 min at 4° C. The crystals were evaporated and sterilized by heating at 180° C. for 2 h and stored in a sterile environment until use. The load of endotoxin present in the MSU crystals was determined using a ToxinSensor^TM Single Test Kit (GenScript).\nInduction of MSU-Induced Knee Joint Inflammation. Male ICR (CD-1) mice (35-45 g, 10-12 weeks) were purchased from VitalRiver Inc (Beijing, China) and were kept in an animal care facility under controlled temperature of 21±1° C., humidity, and on a light/dark cycle, with ad libitum access to water and standard laboratory chow diet. Animal care and handling procedures were approved by the Animal Ethics Committee of GZUCM (Guangzhou University of Chinese Medicine). All efforts were made to minimize animal suffering and to reduce the number of animals used. Joint inflammation was induced by the intra-articular (i.a.) administration of MSU (200 μg/20 μl) into the right and left knee joints of mice under inhaled 3% isoflurane anesthesia. Control animals received an injection (i.a.) of sterile PBS (20 μL).\nEvaluation of Knee Joint Edema. Knee joint edema was determined with a caliper (Mitutoyo) before (zero time), and after the intra-articular injection with MSU at the times indicated. Knee joint edema was determined for each mouse by the difference between the time points indicated on figures and the zero time (Ruiz-Miyazawa et al, 2017). The edema value is represented as Amm/joint.\nStatistical Analysis. Data were analyzed using GraphPad Prism statistical software (GraphPad Software, Inc., United States-500.288, version 5.0). Results are presented as means±SEM or SD of measurements made on 6 mice per group, with statistical significance determined by two-way ANOVA, comparing each group to the control (“Model”) group. For in vitro experiments, microassays were performed in quadruplicate. p<0.05 was considered significant (*p<0.05, **p<0.01, ***p<0.001)."}, "IL-17": {"tested_on": "IL-17", "assay": "IL-17 gene expression in RA-patient synovial cells (RT-qPCR)", "assay_type": "cell-based, human", "settings": "2 h", "experimental": "Synovial fluid was freshly collected from 20 patients with rheumatoid arthritis (RA) by arthrocentesis. At two hours after treatment or not with 2,4-D, RA-patient synovial cells were directly lysed using TRIzol reagent (Invitrogen, USA) followed by RNA extraction according to the manufacturer's protocol. Finally, RNA was dissolved in 10 μL DEPC-treated water, quantified on a NanoDrop 2000 spectrophotometer (Thermo Scientific Inc., USA), and reverse-transcribed using the Super Script III First-Strand Synthesis System for RT-PCR kit (Thermo Scientific, USA) according to the manufacturer's protocol. PCR was performed in duplicate using SYBR Green qPCR master mix (Takara Biomedical Technology Co., Ltd, Dalian, China) on an ABI 7500 Real-Time PCR System (Thermo, USA). The cycling program was as follows: denaturation at 95° C. for 15 s, 40 cycles of 95° C. for 15 s and extension at 60° C. for 60 s, followed by melt curve generation. The ΔΔCT method was used to quantify relative mRNA levels as described in Example 1 above. The primer sequences specific for human IL-17 genes (hu-IL-17 Forward: 5′-[…]-3′; hu-IL-17 Reverse: 5′-GGCACTTTGCCTCCCAGAT-3′) (SEQ ID NOs 8 and 9, respectively) and IL-23 (see Example 1, above) were used."}}}
{"compound": "COc1cc(O)c(OC)c(O)c1C(=O)/C=C/c1ccccc1", "note": "[2,4-D, 2′,4′-dihydroxy-3′,6′-dimethoxychalcone]", "values": [{"measurement": "number of infiltrating IBA-1 positive macrophages in CNV", "setting": "[1]", "result": "important reduction"}, {"measurement": "reduction of MSU-induced knee joint edema", "setting": "[2]; high dose i.p.: 2,4-D 100 mg/kg, CLC 1 mg/kg, DEX 0.5 mg/kg", "result": 68.4, "unit": "%"}, {"measurement": "reduction of MSU-induced knee joint edema", "setting": "[2]; low dose i.p.: 2,4-D 20 mg/kg, DEX 0.1 mg/kg", "result": 45.3, "unit": "%"}, {"measurement": "decrease of IL-17 expression", "setting": "IL-17; 1 μg/ml", "result": 23, "unit": "fold"}, {"measurement": "inhibition of IL-17 expression", "setting": "IL-17; 5 μg/ml", "result": 60, "unit": "fold"}]}
